The results in this text go back to PubChem BioAssay (NCI).

“And” between values parts separate entries of the source, which are not always exact repeats. Equal entries are not always repeated.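 All cell lines were grown in 96-well plates and treated with compound for 48 hours. Here, GI50 denotes the concentration required for 50% inhibition of growth. TGI: total growth inhibition.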

Test systems include NCI-H522 lung; SF-268 CNS; TK-10 renal; UACC-62 melanoma; UO-31 renal; DU-145 prostate; EKVX NSCLC; SW-620 colon; KM12 colon; HOP-62 NSCLC.
Common to all, as to test: growth of human tumour cells (NCI), 48 h

As to `O=C(Nc1ccc(Cl)c(Cl)c1)Nc1ccccc1O`, the GI50 was 2.65 µM in the test with NCI-H522 lung; 9.59 µM with SF-268 CNS; 6.41 µM with TK-10 renal; 5.12 µM in the test on UACC-62 melanoma; 2.48 µM with UO-31 renal; 9.75 µM with DU-145 prostate. Also, the GI50 with EKVX NSCLC is 18.2 µM; in the test with SW-620 colon it was 5.42 µM; in the test with KM12 colon, 3.35 µM; in the test with HOP-62 NSCLC, 10.6 µM. The TGI in the test on NCI-H522 lung is 15.5 µM; in the test on SF-268 CNS, 27.4 µM; in the test with TK-10 renal, 28 µM; in the test with UACC-62 melanoma it was 19.8 µM; in the test with UO-31 renal it was 18.4 µM; in the test with DU-145 prostate, 31.1 µM. The TGI in the test with EKVX NSCLC was 61.5 µM; with SW-620 colon, 19.5 µM; in the test with KM12 colon it was 13.7 µM; in the test with HOP-62 NSCLC, 24.1 µM.

As for `CCCCCCCCCCN1CCC(N2CCCCC2)CC1`, the GI50 in the test with NCI-H522 lung was 1.93 µM; with SF-268 CNS, 4.1 µM; in the test on TK-10 renal, 2.08 µM; with UACC-62 melanoma, 1.76 µM; in the test on UO-31 renal, 1 µM; in the test on DU-145 prostate, 9.64 µM. Also, the GI50 with EKVX NSCLC is 4.37 µM; with SW-620 colon, 1.92 µM; in the test with KM12 colon, 1.82 µM; in the test on HOP-62 NSCLC, 2.38 µM. The TGI in the test on NCI-H522 lung is 5.54 µM; with SF-268 CNS, 17 µM; with TK-10 renal it was 5.71 µM; in the test on UACC-62 melanoma, 3.4 µM; in the test on UO-31 renal, 2.8 µM; in the test on DU-145 prostate it was 21.9 µM. Also, the TGI is 18.3 µM in the test on EKVX NSCLC, 3.97 µM with SW-620 colon, 3.75 µM with KM12 colon and 7.64 µM in the test on HOP-62 NSCLC.

In the case of `CCCCCCCCCCCCOC1C(C(CC(=O)NCCN2CCCC2)NS(=O)(=O)c2cc(Cl)cc(Cl)c2)OC2OC(C)(C)OC21` (stereo not drawn), the GI50 in the test on NCI-H522 lung is 2.11 µM; with SF-268 CNS, 1.95 µM and 1.97 µM; with TK-10 renal, 2 µM; with UACC-62 melanoma, 1.85 µM; with UO-31 renal, 1.9 µM; with DU-145 prostate it was 1.86 µM and 1.79 µM. The GI50 in the test on EKVX NSCLC is 1.87 µM; in the test on SW-620 colon it was 1.98 µM; with KM12 colon, 1.81 µM; in the test with HOP-62 NSCLC, 1.74 µM. Besides, the TGI in the test with NCI-H522 lung is 3.98 µM; in the test on SF-268 CNS it was 3.96 µM and 3.84 µM; in the test on TK-10 renal it was 3.82 µM; in the test on UACC-62 melanoma, 3.3 µM; in the test on UO-31 renal, 3.44 µM; in the test on DU-145 prostate it was 3.45 µM and 3.23 µM. Also, the TGI was 3.49 µM with EKVX NSCLC, 3.63 µM in the test with SW-620 colon, 3.45 µM in the test with KM12 colon and 3.39 µM with HOP-62 NSCLC.

With `CN1CCN(c2ccc(Nc3ncc4cc(C#N)c(=O)n(C5CCCC5)c4n3)cc2)CC1`, the GI50 in the test with NCI-H522 lung is 4.29 µM; with SF-268 CNS, 1.48 µM; with TK-10 renal, 0.82 µM; in the test with UACC-62 melanoma it was 4 µM; in the test with UO-31 renal, 0.218 µM; in the test on DU-145 prostate, 2.13 µM. The GI50 is 2.93 µM in the test with EKVX NSCLC, 0.451 µM in the test with SW-620 colon, 1.52 µM in the test with KM12 colon and 2.19 µM in the test with HOP-62 NSCLC. Further, the TGI in the test with NCI-H522 lung is > 100 µM; with SF-268 CNS, 4.95 µM; with TK-10 renal, > 24.2 µM; in the test on UACC-62 melanoma it was > 100 µM; in the test on UO-31 renal it was 7.03 µM; in the test on DU-145 prostate, > 100 µM. The TGI in the test with EKVX NSCLC was > 100 µM; with SW-620 colon, > 100 µM; in the test with KM12 colon, > 100 µM; in the test on HOP-62 NSCLC it was > 25.5 µM.

On to `O=C(NO)c1ccc(CN(c2cnccn2)c2cnccn2)cc1`, for which the GI50 was 4.19 µM with NCI-H522 lung; 16.3 µM in the test on SF-268 CNS; 11.3 µM in the test on TK-10 renal; 6.71 µM in the test on UACC-62 melanoma; 12.9 µM in the test with UO-31 renal; 9.26 µM in the test on DU-145 prostate. In addition, the GI50 is 15.9 µM in the test on EKVX NSCLC, 12.5 µM in the test on SW-620 colon, 10.3 µM in the test on KM12 colon and 15.4 µM in the test on HOP-62 NSCLC. Moreover, the TGI with NCI-H522 lung is 18 µM; in the test with SF-268 CNS it was 32.7 µM; in the test on TK-10 renal, 42 µM; in the test with UACC-62 melanoma, 28.5 µM; with UO-31 renal, 26.4 µM; with DU-145 prostate, > 100 µM. The TGI is 36.7 µM with EKVX NSCLC, 33.7 µM with SW-620 colon, 24.2 µM in the test with KM12 colon and 34.8 µM in the test with HOP-62 NSCLC.

As to `O=C(OCc1ccc2c(Cl)cc(Cl)c(O)c2n1)N1CCN(C(=O)c2cc3cc(F)ccc3[nH]2)CC1`, the GI50 in the test with NCI-H522 lung was 0.303 µM; with SF-268 CNS, 1.56 µM; in the test with TK-10 renal it was 99.5 µM; with UACC-62 melanoma, 1.28 µM; in the test with UO-31 renal it was 2.59 µM; in the test on DU-145 prostate, 1.94 µM. In addition, the GI50 with EKVX NSCLC is > 74.9 µM; in the test with SW-620 colon, 0.83 µM; with KM12 colon it was 0.58 µM; in the test with HOP-62 NSCLC, 1.31 µM. Besides, the TGI is > 100 µM with NCI-H522 lung; > 100 µM in the test with SF-268 CNS; > 100 µM in the test on TK-10 renal; > 100 µM in the test on UACC-62 melanoma; > 100 µM in the test with UO-31 renal; 18.6 µM with DU-145 prostate. For the same compound, the TGI with EKVX NSCLC is > 100 µM; in the test with SW-620 colon, > 100 µM; in the test on KM12 colon it was > 41.3 µM; with HOP-62 NSCLC, > 100 µM.

Regarding `CO/N=C(/C)c1cccc(Nc2cc(-c3ccccc3)nc3ccc(OC)cc23)c1`, the GI50 in the test on NCI-H522 lung is 17.8 µM; in the test on SF-268 CNS, 3.64 µM; in the test with TK-10 renal, 3.32 µM; in the test with UACC-62 melanoma, 4.33 µM; with UO-31 renal, 15.5 µM; in the test on DU-145 prostate it was 12 µM. Also, the GI50 was 10.8 µM in the test on EKVX NSCLC, 4.74 µM with SW-620 colon and 2.37 µM in the test with HOP-62 NSCLC. Moreover, the TGI in the test on NCI-H522 lung was > 100 µM; in the test on SF-268 CNS it was 14.1 µM; in the test on TK-10 renal, 12.8 µM; in the test on UACC-62 melanoma it was 17.7 µM; with UO-31 renal, > 100 µM; in the test on DU-145 prostate, 31.5 µM. The TGI with EKVX NSCLC stood at 30.3 µM; in the test with SW-620 colon, 29.6 µM; with HOP-62 NSCLC, 6.17 µM.
